Data from patent publication US20160009693A1, “HERBICIDAL COMPOUNDS” (SYNGENTA LIMITED, priority 2013, published 2016).

What was measured:
Assay type in all cases: in vivo
Settings in all cases: applied at 1000 g/h, evaluated after 13 days
[1] = test system: Amaranthus retoflexus (AMARE); experiment: Herbicidal glasshouse test, post-emergence, AMARE
Summary of the method: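 This post-emergence glasshouse test used AMARE plants raised in standard soil for 8 days under controlled conditions (24/16° C. day/night, 14 hours light, 65% humidity). Foliage was sprayed with formulated compound in acetone/water (50:50) containing 0.5% Tween 20. Plants were then watered twice daily, and after 13 days percentage damage was rated on a five point scale.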

[2] = test system: Setaria faberi (SETFA); experiment: Herbicidal glasshouse test, post-emergence, SETFA
Summary of the method: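 This post-emergence glasshouse herbicide test used potted Setaria faberi. Plants were cultivated for 8 days under controlled conditions (24/16° C. day/night, 14 hours light, 65% humidity) and then treated with an aqueous spray made from an acetone/water (50:50) solution containing 0.5% Tween 20. After 13 days of further growth with twice-daily watering, damage was rated on a five point scale (5=80-100%; 1=0-19%).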

[3] = test system: Solanum nigrum (SOLNI); experiment: Herbicidal glasshouse test, pre-emergence, SOLNI
Summary of the method: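 This pre-emergence glasshouse herbicide test used Solanum nigrum sown in standard soil. One day after sowing, pots were sprayed with the compound in acetone/water (50:50) with 0.5% Tween 20. They were then grown at 24/16° C., with 14 hours light and 65% humidity, and watered twice daily. Percentage damage was scored after 13 days on a five point scale, where 5=80-100% and 1=0-19%.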

[4] = test system: Solanum nigrum (SOLNI); experiment: Herbicidal glasshouse test, post-emergence, SOLNI
[5] = test system: Echinochloa crus-galli (ECHCG); experiment: Herbicidal glasshouse test, pre-emergence, ECHCG
Summary of the method: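 In this pre-emergence glasshouse test, ECHCG seeds sown in pots of standard soil were sprayed one day after sowing with the test material in acetone/water (50:50) containing 0.5% Tween 20. Plants were kept at 24/16° C., 14 hours light, 65% humidity, and watered twice daily. Percentage damage was rated after 13 days on a 1–5 scale.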

[6] = test system: Ipomoea hederacea (IPOHE); experiment: Herbicidal glasshouse test, post-emergence, IPOHE
[7] = test system: Alopecurus myosuroides (ALOMY); experiment: Herbicidal glasshouse test, pre-emergence, ALOMY
[8] = test system: Amaranthus retoflexus (AMARE); experiment: Herbicidal glasshouse test, pre-emergence, AMARE
Summary of the method: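 This pre-emergence glasshouse herbicide test used Amaranthus retoflexus sown in standard soil. After one day of cultivation, an aqueous spray made from the technical ingredient in 50:50 acetone/water with 0.5% Tween 20 was applied. Pots stayed at 24/16° C., 14 hours light, 65% humidity, with twice-daily watering. Damage was rated on a five point scale (1=0-19% up to 5=80-100%).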

[9] = test system: Setaria faberi (SETFA); experiment: Herbicidal glasshouse test, pre-emergence, SETFA
[10] = test system: Echinochloa crus-galli (ECHCG); experiment: Herbicidal glasshouse test, post-emergence, ECHCG
Summary of the method: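 In this post-emergence glasshouse test, barnyard grass (ECHCG) was cultivated for 8 days under controlled conditions (24/16° C. day/night, 14 hours light, 65% humidity). It was then sprayed with an aqueous solution of the technical compound in acetone / water (50:50) with 0.5% Tween 20. Plants were kept under the same conditions and watered twice daily. After 13 days, percentage damage was rated on a five point scale (5=80-100%; 1=0-19%).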

[11] = test system: Alopecurus myosuroides (ALOMY); experiment: Herbicidal glasshouse test, post-emergence, ALOMY
[12] = test system: Ipomoea hederacea (IPOHE); experiment: Herbicidal glasshouse test, pre-emergence, IPOHE

SMILES | POST Application AMARE, percentage damage (five point scale) [1] | POST Application SETFA, percentage damage (five point scale) [2] | PRE Application SOLNI, percentage damage (five point scale) [3] | POST Application SOLNI, percentage damage (five point scale) [4] | PRE Application ECHCG, percentage damage (five point scale) [5] | POST Application IPOHE, percentage damage (five point scale) [6] | PRE Application ALOMY, percentage damage (five point scale) [7] | PRE Application AMARE, percentage damage (five point scale) [8] | PRE Application SETFA, percentage damage (five point scale) [9] | POST Application ECHCG, percentage damage (five point scale) [10] | POST Application ALOMY, percentage damage (five point scale) [11] | PRE Application IPOHE, percentage damage (five point scale) [12]
Cn1ncnc1NC(=O)c1nn(C)c(=O)n(-c2cccc(F)c2F)c1=O [Compound 5.002] | 5 (5=80-100%) | 5 (5=80-100%) | 5 (5=80-100%) | 5 (5=80-100%) | 3 (3=40-59%) | 5 (5=80-100%) | 3 (3=40-59%) | 5 (5=80-100%) | 2 (2=20-39%) | 5 (5=80-100%) | 5 (5=80-100%) | 5 (5=80-100%)
CC#CCn1c(=O)c(C(=O)Nc2nnnn2C)nn(C)c1=O [Compound 1.092] | 5 (5=80-100%) | 5 (5=80-100%) | 5 (5=80-100%) | 5 (5=80-100%) | 5 (5=80-100%) | 5 (5=80-100%) | 4 (4=60-79%) | 5 (5=80-100%) | 5 (5=80-100%) | 5 (5=80-100%) | 4 (4=60-79%) | 5 (5=80-100%)
COc1ccc(F)c(Cn2c(=O)c(C(=O)Nc3nnnn3C)nn(C)c2=O)c1Cl [Compound 1.077] | 3 (3=40-59%) | 2 (2=20-39%) | 4 (4=60-79%) | 4 (4=60-79%) | 4 (4=60-79%) | 4 (4=60-79%) | 4 (4=60-79%) | 3 (3=40-59%) | 2 (2=20-39%) | 4 (4=60-79%) | 4 (4=60-79%) | 4 (4=60-79%)
Cc1cccc(Cn2c(=O)c(C(=O)Nc3nnnn3C)nn(C)c2=O)c1 [Compound 1.052] | 5 (5=80-100%) | 1 (1=0-19%) | 5 (5=80-100%) | 5 (5=80-100%) | 5 (5=80-100%) | 5 (5=80-100%) | 5 (5=80-100%) | 5 (5=80-100%) | 1 (1=0-19%) | 5 (5=80-100%) | 5 (5=80-100%) | 2 (2=20-39%)
CCCCn1c(=O)c(C(=O)Nc2ncnn2C)nn(C)c1=O [Compound 5.003] | 5 (5=80-100%) | 4 (4=60-79%) | 5 (5=80-100%) | 5 (5=80-100%) | 1 (1=0-19%) | 4 (4=60-79%) | 1 (1=0-19%) | 5 (5=80-100%) | 4 (4=60-79%) | 4 (4=60-79%) | 3 (3=40-59%) | 4 (4=60-79%)
Cn1nnnc1NC(=O)c1nn(C)c(=O)n(Cc2cc(Cl)nc(Cl)c2)c1=O [Compound 1.085] | 5 (5=80-100%) | 2 (2=20-39%) | 5 (5=80-100%) | 5 (5=80-100%) | 5 (5=80-100%) | 5 (5=80-100%) | 5 (5=80-100%) | 5 (5=80-100%) | 2 (2=20-39%) | 5 (5=80-100%) | 5 (5=80-100%) | 5 (5=80-100%)
Cn1nnnc1NC(=O)c1nn(C)c(=O)n(-c2ccc(Cl)c(Cl)c2)c1=O [Compound 1.041] | 5 (5=80-100%) | 5 (5=80-100%) | 5 (5=80-100%) | 5 (5=80-100%) | 5 (5=80-100%) | 5 (5=80-100%) | 5 (5=80-100%) | 5 (5=80-100%) | 4 (4=60-79%) | 5 (5=80-100%) | 5 (5=80-100%) | 5 (5=80-100%)
Cn1nnnc1NC(=O)c1nn(C)c(=O)n(Cc2cccc(C(F)F)c2)c1=O [Compound 1.079] | 5 (5=80-100%) | 2 (2=20-39%) | 5 (5=80-100%) | 5 (5=80-100%) | 5 (5=80-100%) | 5 (5=80-100%) | 5 (5=80-100%) | 5 (5=80-100%) | 1 (1=0-19%) | 5 (5=80-100%) | 4 (4=60-79%) | 4 (4=60-79%)
CC#CCn1nc(C(=O)Nc2nnnn2C)c(=O)n(-c2cccc(F)c2)c1=O [Compound 1.012] | 5 (5=80-100%) | 5 (5=80-100%) | 5 (5=80-100%) | 5 (5=80-100%) | 3 (3=40-59%) | 4 (4=60-79%) | 4 (4=60-79%) | 4 (4=60-79%) | 1 (1=0-19%) | 5 (5=80-100%) | 5 (5=80-100%) | 5 (5=80-100%)
Cn1nnnc1NC(=O)c1nn(C)c(=O)n(Cc2ccccc2C#N)c1=O [Compound 1.083] | 5 (5=80-100%) | 5 (5=80-100%) | 5 (5=80-100%) | 5 (5=80-100%) | 5 (5=80-100%) | 5 (5=80-100%) | 5 (5=80-100%) | 5 (5=80-100%) | 5 (5=80-100%) | 5 (5=80-100%) | 5 (5=80-100%) | 5 (5=80-100%)
